{Chol} = cholesterol
Columns and labels:
Assay in all cases: Cell viability assay (ATP quantitation)
[1] = tested on: D04 melanoma cell line; type: cell-based, human; settings: 50 nM, 5 days (120 hrs), vs non-targeting control
Method: (§1) EsiRNA, siRNA and ASO GapmeRs were transfected in a final concentration of 50 nM unless mentioned otherwise and the transfection reagent Lipofectamine 3000 (2 ul/ml) was added according to the manufacturer's instructions.
(§2) Dependent on cell doubling time, 0.7-2×10^^3 cells were seeded in 96 well plates. 1 day after seeding cells were incubated in media with oligonucleotide concentration and/or MEKi and transfection reagent. 3 (synergy experiments) or 5 (solely ASO) days after transfection Total luminescence was measured on the SynergyHT plate reader (BioTek) using Gen5 software.

[2] = tested on: MM415 melanoma cell line; type: cell-based, human; settings: 50 nM, 5 days (120 hrs), vs non-targeting control
Method: as §1, §2

[3] = tested on: Sk-Mel-2 melanoma cell line; type: cell-based, human; settings: 50 nM, 5 days (120 hrs), vs non-targeting control
Method: as §1, §2

[4] = tested on: WM3629 melanoma cell line; type: cell-based, human; settings: 50 nM, 5 days (120 hrs), vs non-targeting control
Method: as §1, §2

[5] = tested on: Sk-Mel-28 melanoma cell line; type: cell-based, human; settings: 50 nM, 5 days (120 hrs), vs non-targeting control
Method: as §1, §2

[6] = tested on: Sk-N-AS Neuroblastoma cell line; type: cell-based; settings: 50 nM, 5 days, vs non-targeting control
Method: as §1, §2

[7] = tested on: AV5 primary melanoma cell line; type: cell-based, human; settings: 50 nM, 5 days (120 hrs), vs non-targeting control
Method: as §1, §2

[8] = tested on: MaMel30 melanoma cell line; type: cell-based; settings: 50 nM, 5 days, vs non-targeting control
Method: as §1, §2

[9] = tested on: Hs852.T primary melanoma cell line; type: cell-based, human; settings: 50 nM, 5 days (120 hrs), vs non-targeting control
Method: as §1, §2

[10] = tested on: VMM39 melanoma cell line; type: cell-based, human; settings: 50 nM, 5 days (120 hrs), vs non-targeting control
Method: as §1, §2

[11] = tested on: WM1366 melanoma cell line; type: cell-based, human; settings: 50 nM, 5 days (120 hrs), vs non-targeting control
Method: as §1, §2

[12] = tested on: WM3211 melanoma cell line; type: cell-based, human; settings: 50 nM, 5 days (120 hrs), vs non-targeting control
Method: as §1, §2

[13] = tested on: hepatocellular carcinoma cell line HepG2; type: cell-based; settings: 50 nM, 120 hrs, Lipofectamine3000 2 ul/ml, vs non-targeting control ASO
Method: as §1, §2
(§3) Cell viability was compared to treatment with non-targeting control ASO-treatment. Lipofectamine3000 concentration was 2 ul/ml.

[14] = tested on: sarcoma cell line SK-LMS-1; type: cell-based; settings: SK-LMS-1 sarcoma; 50 nM, 120 hrs; Lipofectamine3000 2 ul/ml; vs non-targeting control ASO
Method: as §1, §2, §3

Measured: cell viability decrease

5′-AUUUCAUGUCUGAAGCAAUUCUACT-3′ (chain 2 AAUAAAGUACAGACUUCGUUAAGAUGA; chemistry not given here; one strand is listed 3' to 5') [SEQ ID NO: 44]
significant cell viability decrease: [1] | [2] | [3] | [4]

5′-GCCAACAGCAUGUCAAUUCAGUGAT-3′ (chain 2 GACGGUUGUCGUACAGUUAAGUCACUA; chemistry not given here; one strand is listed 3' to 5') [SEQ ID NO: 43]
significant cell viability decrease: [1] | [3] | [4]

5′-GGUAAAAACAUGAAGCUAAUAGUUA-3′ (chain 2 ACCCAUUUUUGUACUUCGAUUAUCAAU; listed as RNA, chemistry not given here; one strand is listed 3' to 5') [SEQ ID NO: 42]
significant cell viability decrease: [1] | [2] | [3]

5′-UCACAAAGAGAGACAGGAAUU-3′ (chain 2 UUCCUGUCUCUCUUUGUGAUU; listed as RNA, chemistry not given here) [SEQ ID NO:46]
significant cell viability decrease: [1] | [2]

AAGTCCTTGGTTGATG (QIAGEN GapmeR, modification pattern not given here) [SEQ ID NO: 21, Antisense oligonucleotide targeting AL157871.4-201]
significant cell viability decrease: [1] | [2] | [3] | [5] | [6]

AGATGGCTCTGTAAGA (QIAGEN GapmeR, modification pattern not given here) [SEQ ID NO: 49, Antisense oligonucleotide targeting SNX10]
significant cell viability decrease: [1]

AGCAAUGACUCCUGAACAUUU (antisense AUGUUCAGGAGUCAUUGCUUU; siRNA; 5' phosphate on antisense strand, other chemistry not given here) [SEQ ID NO: 27, siRNA targeting RP11-7011.3]
significant cell viability decrease: [7] | [1] | [5]

ATTGATGAAAGGTGAA (QIAGEN GapmeR, modification pattern not given here) [SEQ ID NO: 19, Antisense oligonucleotide targeting ARF-AS1-201, ARF-AS1-202 and ARF-AS1-203]
significant cell viability decrease: [1] | [2] | [3] | [5] | [8] | [6]

CCCAGAAGCUAGAGGUAAAUU (antisense UUUACCUCUAGCUUCUGGGUU; listed as RNA, chemistry not given here) [SEQ ID NO: 23, siRNA targeting BX470102.3-008]
significant cell viability decrease: [7] | [1] | [5]

CTCATGAGCTGTCGTA (QIAGEN GapmeR, modification pattern not given here) [SEQ ID NO: 41, Antisense oligonucleotide targeting AC004540.4-001 and AC004540.4-002]
not listed: [6] | [8]
significant cell viability decrease: all other assays above

GACTGGAGATAATTAA-Cholesterol (3' {Chol}, sugars by position and backbone not given here; GapmeR, chemically modified) [SEQ ID NO:47, TRASH targeting ASO with additional Cholesterol modification]
significant cell viability decrease: [1] | [2] | [13] | [14]

GAGUAACAGAGGAGAACUUUU (antisense AAGUUCUCCUCUGUUACUCUU; siRNA; 5' phosphate on antisense strand, other chemistry not given here) [SEQ ID NO: 25, siRNA targeting both isoforms of AC004540.4]
significant cell viability decrease: [7]

GCGTCAACTAAAGCAA (QIAGEN GapmeR, modification pattern not given here) [SEQ ID NO: 20, Antisense oligonucleotide targeting ARF-AS1-202 and ARF-AS1-203]
significant cell viability decrease: [1] | [2] | [3] | [5] | [6]

GGAAAGGCGAGCUGAGCAUUU (antisense AUGCUCAGCUCGCCUUUCCUU; listed as RNA, chemistry not given here) [SEQ ID NO: 37, siRNA targeting ARF-AS1 isoform 1]
significant cell viability decrease: [1]

GTAAGTAGGAGCTGTG (QIAGEN GapmeR, modification pattern not given here) [SEQ ID NO: 22, Antisense oligonucleotide targeting AL157871.4-201]
significant cell viability decrease: [1] | [2] | [3] | [5] | [8] | [6]

UGGAUAAUGAUAAGGUCUAUU (antisense UAGACCUUAUCAUUAUCCAUU; listed as RNA, chemistry not given here) [SEQ ID NO: 39, siRNA targeting AL157871.4-201]
significant cell viability decrease: [1]

Source: patent US20250197864A1, “LNCRNA TRANSCRIPTS IN MELANOMAGENESIS” (The Regents of the University of California, priority 2021, published 2025)
